Patent US4167580A, “Compositions and method of use to treat arthritic disease with m-fluorobenzimidoylacetonitrile” (American Cyanamid Company, priority 1978, dated 1979)

Experiments:
Erythema in Guinea Pigs = experiment: Ultraviolet induced erythema in guinea pigs, topical application; format: in vivo, Albino guinea pigs
Protocol: Albino guinea pigs were depilitated on their flanks, the evening before testing, with a standard mixture of barium sulfide and gum acacia. On the morning of the test at 0 hour they were restrained in a plastic container which allows exposure of 3 circular spots. They were then exposed to ultraviolet irradiation from a "Hanovia" Kromayer lamp, model 10, for 60 seconds. Immediately after exposure to ultraviolet light, the guinea pigs were treated by dissolving the test compound in ethyl alcohol at various concentrations and swabbing the UV exposed areas with the aid of a cottom tipped applicator stick. At one and four hours, the degree of erythema for each of the three sites was assessed according to the following scoring system: 0=no erythema, 0.5=incomplete circle or faint erythema and 1.0=complete circle of distinct erythema. Thus, the maximum score for each animal was 3.0.

[1] = tested on: Carrageenin Induced Edema of the Rat Paw; experiment: Carrageenin induced edema of the rat paw (acute anti-inflammatory activity); format: in vivo, Royal Hart, Wistar strain rats; conditions: 250 mg./kg. by gavage, 5 hours after drug (4 hours after carrageenin)
Protocol: In determining the acute anti-inflammatory activity of benzimidoylacetonitrile, Royal Hart, Wistar strain rats ranging in weight from 80 to 90 grams were used. The rats were fasted overnight prior to dosing but had free access to water. The compound was administered in aqueous suspension, by gavage, in a volume of 1.7 ml. per 50 grams of rat [corresponds by hydration volume used by Winter et al., Proc. Soc. […] The phlogistic agent used was carrageenin prepared as a sterile 1% suspension in 0.9% aqueous sodium chloride for routine testing. A volume of 0.05 ml. was injected through a 26 gauge needle into the planter tissue of the right hind paw. Measurements were made 5 hours after drug administration (4 hours after carrageenin challenge). Volumes of both the normal and carrageenin inflamed feet were determined. The difference between the two measurements is considered to be the increased edema due to the carrageenin administration.

[2] = tested on: Body Temperature of Pyretic Rats; experiment: Body temperature in yeast induced pyrexia; format: in vivo, Royal Hart, Wistar strain rats; conditions: 250 mg./kg. by gavage 17 hours after yeast; measured 19 hours post challenge
Protocol: The effect of benzimidoylacetonitrile on body temperature in yeast induced pyrexia was determined by the following procedure. Groups of three Royal Hart, Wistar strain rats weighing 80±5 grams were injected subcutaneously in the nape of the neck with 0.6 ml. of a 40% suspension of dried brewers yeast in distilled water. […] At 19 hours post challenge the rectal temperature of each rat was measured with an electric thermometer. Each dose response experiment was replicated one or more times.

[3] = tested on: Adjuvant Arthritis in Rats; experiment: Adjuvant induced arthritis in rats (chronic inflammation with joint destruction); format: in vivo, Royal Hart, Wistar strain rats; conditions: for % Inhibition of Control Grade (secondary lesion), Day 14 / % Inhibition of Control Grade (secondary lesion), Day 21 / % Inhibition of Swelling (primary lesion), Day 14 / % Inhibition of Swelling (primary lesion), Day 21 / Dead/Treated At 21 Days / Mean Weight Gain, Day 14 / Mean Weight Gain, Day 21: once daily days 0-13
Source text: Adjuvant induced experimental polyarthritis is a specific systemic disease of the rat which shares interesting similarities with rheumatoid arthritis. Specifically, the histology of the two diseases bears a remarkable resemblance as shown by C. M. Pearson et al., Am. J. Pathol. 42, 73 (1963). E. M. Glenn, Am. J. Vet. Res. 27 (116), 339 (1966) has classified adjuvant induced polyarthritis as a crippling and permanent deformity resulting from diffuse connective tissue involvement around certain susceptible joints in the rat. Zahiri et al., Can. Med. Ass. J. 101, 269 (1969) have shown that the fusiform swelling of the distal joints is associated with edema, congestion and synovitis including pannus formation, all of which precede the ultimate destruction of bone and cartilage. Furthermore, Zahiri et al. indicate that the cartilage destruction in the joint is due to an invasive pannus which originates in the marginal synovium and extends across the articular surface to erode it. […] See S. Wong et al., J. Pharm. & Exptl. Ther. 185, 127 (1973) and G. R. Bobalick et al., Agents & Actions 4, 364 (1974). In a similar manner, inhibition of the progress of arthritis in paws of rats treated with the compounds of this invention also lessens associated joint deterioration.
Groups of three Royal Hart, Wistar strain rats weighing 200±10 grams each were injected intradermally in the right hind paw with Freund's adjuvant (dried human tubercle bacilli in a mineral oil vehicle) at a dose of 2 mg./kg. of body weight. Test compounds were administered orally in a 1.5% staruh vehicle at various doses once daily on days 0 through 13 post challenge. Control rats were treated in a similar manner, but given only starch vehicle. On the 14th and 21st day post challenge the diameter of the injected paw (primary lesion) was measured by micrometer caliper. The volume of inflamed paws were estimated from these measurements and the results are expressed as percent inhibition of swelling as compared to controls. At the same time, the other inflamed sites, such as ears, paws and tail (secondary lesions) were observed and each rat was graded as to degree of inflammation and swelling present. The grading is based on a scale of 0 to 24, where 0 represents a complete absence of induced arthritic nodules and 24 represents the maximum degree of inflammation. The mean grade for each treated group is calculated and the effects of each compound are expressed as percent inhibition of the control grade. Table III records the results of these tests conducted with benzimidoylacetonitrile, m-fluorobenzimidoylacetonitrile and p-fluorobenzimidoylacetonitrile and known anti-inflammatory agents. The active compounds of the present invention suppress the progression of the arthritis and associated joint deterioration. Of particular interest is the low mortality observed with benzimidoylacetonitrile treated rats relative to either controls or rats treated with standard compounds.

[4] = 1% in ethyl alcohol, maximum score 3.0, ethyl alcohol control 2.5
[5] = 1% in ethyl alcohol, maximum score 3.0, ethyl alcohol control 3.0

SMILES | Erythema Score (Avg.) 1 Hr. (Erythema in Guinea Pigs; [4]) | Erythema Score (Avg.) 4 Hr. (Erythema in Guinea Pigs; [5]) | C/T Edema Ratio (edema of control animals/edema of treated animals) [1] | Decrease In Body Temp. [2] [°C] | % Inhibition of Control Grade (secondary lesion), Day 14 ([3]; 50 mg./kg. oral) [%] | % Inhibition of Control Grade (secondary lesion), Day 21 ([3]; 50 mg./kg. oral) [%] | % Inhibition of Swelling (primary lesion), Day 14 ([3]; 50 mg./kg. oral) [%] | % Inhibition of Swelling (primary lesion), Day 21 ([3]; 50 mg./kg. oral) [%] | Dead/Treated At 21 Days ([3]; 50 mg./kg. oral) | Mean Weight Gain, Day 14 ([3]; 50 mg./kg. oral) [grams] | Mean Weight Gain, Day 21 ([3]; 50 mg./kg. oral) [grams] | % Inhibition of Control Grade (secondary lesion), Day 14 ([3]; 100 mg./kg. oral) [%] | % Inhibition of Control Grade (secondary lesion), Day 21 ([3]; 100 mg./kg. oral) [%] | % Inhibition of Swelling (primary lesion), Day 14 ([3]; 100 mg./kg. oral) [%] | % Inhibition of Swelling (primary lesion), Day 21 ([3]; 100 mg./kg. oral) [%] | Dead/Treated At 21 Days ([3]; 100 mg./kg. oral) | Mean Weight Gain, Day 14 ([3]; 100 mg./kg. oral) [grams] | Mean Weight Gain, Day 21 ([3]; 100 mg./kg. oral) [grams] | other results
CC(=O)Oc1ccccc1C(=O)O [Aspirin] | 1.9 | 2.8 | 2.8 | 1.5 | 12 | 9 | 23 | 3 | 2/21 | 56 | 44 | 19 | 8 | 36 | 13 | 18/63 | 48 | 53 | % Inhibition of Control Grade (secondary lesion), Day 14 ([3]; 200 mg./kg. oral): 26%; % Inhibition of Control Grade (secondary lesion), Day 21 ([3]; 200 mg./kg. oral): 17%; % Inhibition of Swelling (primary lesion), Day 14 ([3]; 200 mg./kg. oral): 48%; % Inhibition of Swelling (primary lesion), Day 21 ([3]; 200 mg./kg. oral): 27%; Dead/Treated At 21 Days ([3]; 200 mg./kg. oral): 10/66; Mean Weight Gain, Day 14 ([3]; 200 mg./kg. oral): 40 grams; Mean Weight Gain, Day 21 ([3]; 200 mg./kg. oral): 44 grams; % Inhibition of Control Grade (secondary lesion), Day 14 ([3]; 400 mg./kg. oral): 58%; % Inhibition of Control Grade (secondary lesion), Day 21 ([3]; 400 mg./kg. oral): 45%; % Inhibition of Swelling (primary lesion), Day 14 ([3]; 400 mg./kg. oral): 73%; % Inhibition of Swelling (primary lesion), Day 21 ([3]; 400 mg./kg. oral): 48%; Dead/Treated At 21 Days ([3]; 400 mg./kg. oral): 19/57; Mean Weight Gain, Day 14 ([3]; 400 mg./kg. oral): 41 grams; Mean Weight Gain, Day 21 ([3]; 400 mg./kg. oral): 55 grams
N#CCC(=N)c1ccccc1 [Benzimidoylacetonitrile, benzimidoylacetonitrile] | 1.0 | 2.8 | 2.2 | 1.4 | 59 | 48 | 63 | 62 | 1/24 | 31 | 49 | 57 | 46 | 68 | 60 | 0/15 | 46 | 65 | Erythema Score (Avg.) 1 Hr. (Erythema in Guinea Pigs; 2% in ethyl alcohol, maximum score 3.0, control 2.5): 0.6; Erythema Score (Avg.) 4 Hr. (Erythema in Guinea Pigs; 2% in ethyl alcohol, maximum score 3.0, control 3.0): 2.7; % Inhibition of Control Grade (secondary lesion), Day 14 ([3]; 25 mg./kg. oral): 33%; % Inhibition of Control Grade (secondary lesion), Day 21 ([3]; 25 mg./kg. oral): 16%; % Inhibition of Swelling (primary lesion), Day 14 ([3]; 25 mg./kg. oral): 33%; % Inhibition of Swelling (primary lesion), Day 21 ([3]; 25 mg./kg. oral): 32%; Dead/Treated At 21 Days ([3]; 25 mg./kg. oral): 1/9; Mean Weight Gain, Day 14 ([3]; 25 mg./kg. oral): 41 grams; Mean Weight Gain, Day 21 ([3]; 25 mg./kg. oral): 38 grams; duration of action (in words) ([3]; greater suppression of primary and secondary lesions at the 21 day observation period): longer duration of action than standards; mortality (in words) ([3]; relative to either controls or rats treated with standard compounds): low mortality
